Laboratory results reported in ChEMBL document CHEMBL4002643, “Tubulin-binding dibenz[c,e]oxepines: Part 2. Structural variation and biological evaluation as tumour vasculature disrupting agents” (Bioorg Med Chem, 2017).

What was measured:
[1] = tested on: HCT-116; experiment: Cytotoxicity against human HCT116 cells assessed as growth inhibition after 48 hrs by SRB assay; format: functional; details: HCT-116, 48 h
[2] = tested on: M14; experiment: Cytotoxicity against human M14 cells assessed as growth inhibition after 48 hrs by SRB assay; format: functional; details: M14, 48 h
[3] = tested on: CAKI-1; experiment: Cytotoxicity against human Caki1 cells assessed as growth inhibition after 48 hrs by SRB assay; format: functional; details: CAKI-1, 48 h
[4] = tested on: SW-620; experiment: Cytotoxicity against human SW620 cells assessed as growth inhibition after 48 hrs by SRB assay; format: functional; details: SW-620, 48 h
[5] = tested on: HOP-62; experiment: Cytotoxicity against human HOP62 cells assessed as growth inhibition after 48 hrs by SRB assay; format: functional; details: HOP-62, 48 h
[6] = tested on: A549; experiment: Cytotoxicity against human A549 cells assessed as growth inhibition after 48 hrs by SRB assay; format: functional; details: A549, 48 h
[7] = tested on: DU-145; experiment: Cytotoxicity against human DU145 cells assessed as growth inhibition after 48 hrs by SRB assay; format: functional; details: DU-145, 48 h
[8] = tested on: 786-0; experiment: Cytotoxicity against human 786-0 cells assessed as growth inhibition after 48 hrs by SRB assay; format: functional; details: 786-0, 48 h
[9] = tested on: NCI-H322M; experiment: Cytotoxicity against human NCI-H322M cells assessed as growth inhibition after 48 hrs by SRB assay; format: functional
[10] = tested on: NCI-H226; experiment: Cytotoxicity against human NCI-H226 cells assessed as growth inhibition after 48 hrs by SRB assay; format: functional; details: NCI-H226, 48 h
[11] = tested on: MDA-MB-435; experiment: Cytotoxicity against human MDA-MB-435 cells assessed as growth inhibition after 48 hrs by SRB assay; format: functional; details: MDA-MB-435, 48 h
[12] = tested on: SNB-75; experiment: Cytotoxicity against human SNB75 cells assessed as growth inhibition after 48 hrs by SRB assay; format: functional; details: SNB-75, 48 h
[13] = tested on: CCRF-CEM; experiment: Cytotoxicity against human CCRF-CEM cells assessed as growth inhibition after 48 hrs by SRB assay; format: functional
[14] = tested on: A498; experiment: Cytotoxicity against human A498 cells assessed as growth inhibition after 48 hrs by SRB assay; format: functional; details: A498, 48 h
[15] = tested on: OVCAR-4; experiment: Cytotoxicity against human OVCAR4 cells assessed as growth inhibition after 48 hrs by SRB assay; format: functional; details: OVCAR-4, 48 h
[16] = tested on: KM12; experiment: Cytotoxicity against human KM12 cells assessed as growth inhibition after 48 hrs by SRB assay; format: functional; details: KM12, 48 h
[17] = tested on: HCC 2998; experiment: Cytotoxicity against human HCC2998 cells assessed as growth inhibition after 48 hrs by SRB assay; format: functional; details: HCC 2998, 48 h
[18] = tested on: NCI-H460; experiment: Cytotoxicity against human NCI-H460 cells assessed as growth inhibition after 48 hrs by SRB assay; format: functional; details: NCI-H460, 48 h
[19] = tested on: Hs-578T; experiment: Cytotoxicity against human Hs 578T cells assessed as growth inhibition after 48 hrs by SRB assay; format: functional
[20] = tested on: SF-539; experiment: Cytotoxicity against human SF539 cells assessed as growth inhibition after 48 hrs by SRB assay; format: functional; details: SF-539, 48 h
[21] = tested on: MOLT-4; experiment: Cytotoxicity against human MOLT4 cells assessed as growth inhibition after 48 hrs by SRB assay; format: functional; details: MOLT-4, 48 h
[22] = tested on: SN12C; experiment: Cytotoxicity against human SN12C cells assessed as growth inhibition after 48 hrs by SRB assay; format: functional
[23] = tested on: MCF7; experiment: Cytotoxicity against human MCF7 cells assessed as growth inhibition after 48 hrs by SRB assay; format: functional; details: MCF7, 48 h
[24] = tested on: LOX IMVI; experiment: Cytotoxicity against human LOXIMVI cells assessed as growth inhibition after 48 hrs by SRB assay; format: functional
[25] = tested on: Malme-3M; experiment: Cytotoxicity against human MALME-3M cells assessed as growth inhibition after 48 hrs by SRB assay; format: functional
[26] = tested on: TK-10; experiment: Cytotoxicity against human TK10 cells assessed as growth inhibition after 48 hrs by SRB assay; format: functional; details: TK-10, 48 h
[27] = tested on: SNB-19; experiment: Cytotoxicity against human SNB19 cells assessed as growth inhibition after 48 hrs by SRB assay; format: functional; details: SNB-19, 48 h
[28] = tested on: IGROV-1; experiment: Cytotoxicity against human IGROV1 cells assessed as growth inhibition after 48 hrs by SRB assay; format: functional; details: IGROV-1, 48 h
[29] = tested on: UO-31; experiment: Cytotoxicity against human UO31 cells assessed as growth inhibition after 48 hrs by SRB assay; format: functional; details: UO-31, 48 h
[30] = tested on: SR; experiment: Cytotoxicity against human SR cells assessed as growth inhibition after 48 hrs by SRB assay; format: functional
[31] = tested on: UACC-257; experiment: Cytotoxicity against human UACC257 cells assessed as growth inhibition after 48 hrs by SRB assay; format: functional; details: UACC-257, 48 h
[32] = tested on: BT-549; experiment: Cytotoxicity against human BT549 cells assessed as growth inhibition after 48 hrs by SRB assay; format: functional; details: BT-549, 48 h
[33] = tested on: OVCAR-8; experiment: Cytotoxicity against human OVCAR8 cells assessed as growth inhibition after 48 hrs by SRB assay; format: functional; details: OVCAR-8, 48 h
[34] = tested on: NCI/ADR-RES; experiment: Cytotoxicity against human NCI-ADR-RES cells assessed as growth inhibition after 48 hrs by SRB assay; format: functional
[35] = tested on: MDA-MB-468; experiment: Cytotoxicity against human MDA-MB-468 cells assessed as growth inhibition after 48 hrs by SRB assay; format: functional; details: MDA-MB-468, 48 h
[36] = tested on: RXF 393; experiment: Cytotoxicity against human RXF393 cells assessed as growth inhibition after 48 hrs by SRB assay; format: functional; details: RXF 393, 48 h
[37] = tested on: K562; experiment: Cytotoxicity against human K562 cells assessed as growth inhibition after 48 hrs by SRB assay; format: functional; details: K562, 48 h
[38] = tested on: T47D; experiment: Cytotoxicity against human T47D cells assessed as growth inhibition after 48 hrs by SRB assay; format: functional
[39] = tested on: HCT-15; experiment: Cytotoxicity against human HCT15 cells assessed as growth inhibition after 48 hrs by SRB assay; format: functional; details: HCT-15, 48 h
[40] = tested on: SF-268; experiment: Cytotoxicity against human SF268 cells assessed as growth inhibition after 48 hrs by SRB assay; format: functional; details: SF-268, 48 h
[41] = tested on: MDA-MB-231; experiment: Cytotoxicity against human MDA-MB-231 cells assessed as growth inhibition after 48 hrs by SRB assay; format: functional; details: MDA-MB-231, 48 h
[42] = tested on: UACC-62; experiment: Cytotoxicity against human UACC62 cells assessed as growth inhibition after 48 hrs by SRB assay; format: functional; details: UACC-62, 48 h
[43] = tested on: SK-MEL-2; experiment: Cytotoxicity against human SK-MEL-2 cells assessed as growth inhibition after 48 hrs by SRB assay; format: functional; details: SK-MEL-2, 48 h
[44] = tested on: HL-60(TB); experiment: Cytotoxicity against human HL-60(TB) cells assessed as growth inhibition after 48 hrs by SRB assay; format: functional; details: HL-60, 48 h
[45] = tested on: U-251; experiment: Cytotoxicity against human U251 cells assessed as growth inhibition after 48 hrs by SRB assay; format: functional; details: U-251, 48 h
[46] = tested on: HOP-92; experiment: Cytotoxicity against human HOP92 cells assessed as growth inhibition after 48 hrs by SRB assay; format: functional; details: HOP-92, 48 h
[47] = tested on: RPMI-8226; experiment: Cytotoxicity against human RPMI8226 cells assessed as growth inhibition after 48 hrs by SRB assay; format: functional; details: RPMI-8226, 48 h
[48] = tested on: SF-295; experiment: Cytotoxicity against human SF295 cells assessed as growth inhibition after 48 hrs by SRB assay; format: functional; details: SF-295, 48 h
[49] = Inhibition of porcine tubulin assembly measured for 30 mins by UV/visible spectrophotometric method; set-up: species or system Sus scrofa
[50] = tested on: EKVX; experiment: Cytotoxicity against human EKVX cells assessed as growth inhibition after 48 hrs by SRB assay; format: functional
[51] = tested on: K562; experiment: Cytotoxicity against human K562 cells assessed as growth inhibition after 5 days by MTT assay; format: functional, cell-based; details: K562, 120 h
[52] = tested on: SK-OV-3; experiment: Cytotoxicity against human SKOV3 cells assessed as growth inhibition after 48 hrs by SRB assay; format: functional; details: SK-OV-3, 48 h
[53] = tested on: PC-3; experiment: Cytotoxicity against human PC3 cells assessed as growth inhibition after 48 hrs by SRB assay; format: functional; details: PC-3, 48 h
[54] = tested on: NCI-H23; experiment: Cytotoxicity against human NCI-H23 cells assessed as growth inhibition after 48 hrs by SRB assay; format: functional; details: NCI-H23, 48 h
[55] = tested on: COLO 205; experiment: Cytotoxicity against human COLO205 cells assessed as growth inhibition after 48 hrs by SRB assay; format: functional; details: COLO 205, 48 h
[56] = tested on: SK-MEL-5; experiment: Cytotoxicity against human SK-MEL-5 cells assessed as growth inhibition after 48 hrs by SRB assay; format: functional; details: SK-MEL-5, 48 h
[57] = tested on: OVCAR-3; experiment: Cytotoxicity against human OVCAR3 cells assessed as growth inhibition after 48 hrs by SRB assay; format: functional; details: OVCAR-3, 48 h
[58] = tested on: NCI-H522; experiment: Cytotoxicity against human NCI-H522 cells assessed as growth inhibition after 48 hrs by SRB assay; format: functional; details: NCI-H522, 48 h

## COc1cc2c(c(OC)c1OC)-c1cc3c(cc1COC2)OCO3
[1]
  GI50: 370 nM
[2]
  GI50: 230 nM
[3]
  GI50: 56200 nM
[4]
  GI50: 400 nM
[5]
  GI50: 690 nM
[6]
  GI50: 440 nM
[7]
  GI50: 370 nM
[8]
  GI50: 500 nM
[9]
  GI50: 2000 nM
[10]
  GI50: 2750 nM
[11]
  GI50: 50 nM
[12]
  GI50: 460 nM
[13]
  GI50: 350 nM
[14]
  GI50: 450 nM
[15]
  GI50: 2190 nM
[16]
  GI50: 360 nM
[17]
  GI50: 490 nM
[18]
  GI50: 380 nM
[19]
  GI50: 430 nM
[20]
  GI50: 350 nM
[21]
  GI50: 470 nM
[22]
  GI50: 1050 nM
[23]
  GI50: 400 nM
[24]
  GI50: 870 nM
[25]
  GI50: > 100000 nM
[26]
  GI50: 5130 nM
[27]
  GI50: 680 nM
[28]
  GI50: 950 nM
[29]
  GI50: 3980 nM
[30]
  GI50: 170 nM
[31]
  GI50: 3390 nM
[32]
  GI50: 540 nM
[33]
  GI50: 520 nM
[34]
  GI50: 360 nM
[35]
  GI50: 170 nM
[36]
  GI50: 200 nM
[37]
  GI50: 210 nM
[38]
  GI50: 25700 nM
[39]
  GI50: 480 nM
[40]
  GI50: 1320 nM
[41]
  GI50: 1200 nM
[42]
  GI50: 790 nM
[43]
  GI50: 560 nM
[44]
  GI50: 390 nM
[45]
  GI50: 480 nM
[46]
  GI50: 7080 nM
[47]
  GI50: 500 nM
[48]
  GI50: 330 nM
[49]
  IC50: > 10000 nM
[50]
  GI50: 780 nM
[51]
  IC50: 85000 nM
[52]
  GI50: 470 nM
[53]
  GI50: 540 nM
[54]
  GI50: 790 nM
[55]
  GI50: 340 nM
[56]
  GI50: 210 nM
[57]
  GI50: 250 nM
[58]
  GI50: 390 nM

## COc1cc2c(c(OC)c1OC)-c1ccc(OC)c(=O)cc1[C@@H](NC(C)=O)CC2 [COLCHICINE]
[49]
  IC50: 2000 nM

## COc1cc2c(c(OC)c1OC)-c1ccc([N+](=O)[O-])cc1COC2
[49]
  IC50: > 10000 nM
[51]
  IC50: 16000 nM

## COc1ccc(/C=C\c2cc(OC)c(OC)c(OC)c2)cc1O [COMBRETASTATIN A4]
[51]
  IC50: 1000 nM

## COc1cc2c(c(OC)c1OC)-c1ccc(N)cc1COC2
[49]
  IC50: > 10000 nM
[51]
  IC50: 10000 nM
